Laboratory results reported in PMC11859928, “Design, Synthesis, and Antiproliferative Activity of Novel Indole/1,2,4-Triazole Hybrids as Tubulin Polymerization Inhibitors” (Pharmaceuticals, 2025).
Read-outs that look alike come from different tables or passages of the source.

Assays:
Format in all cases: cell-based, human
[1] = system: HCT-15; test: NCI five-dose assay; settings: for CC50 / GI50: Homo sapiens; for CC50: read-out: LC50 (the source's name); for GI50: read-out: GI50 Conc. per Cell Lines
[2] = system: Melanoma subpanel; test: NCI five-dose assay, subpanel mean; settings: for GI50: Homo sapiens, read-out: GI50 Subpanel MID b; for GI50 Selectivity Ratio (MID a/MID b): Melanoma subpanel
[3] = system: SNB-75; test: NCI five-dose assay; settings: for CC50 / GI50: Homo sapiens; for CC50: read-out: LC50 (the source's name); for GI50: read-out: GI50 Conc. per Cell Lines
[4] = system: M14; test: NCI five-dose assay; settings: for CC50 / GI50: Homo sapiens; for CC50: read-out: LC50 (the source's name); for GI50: read-out: GI50 Conc. per Cell Lines
[5] = system: SK-OV-3; test: NCI five-dose assay; settings: for CC50 / GI50: Homo sapiens; for CC50: read-out: LC50 (the source's name); for GI50: read-out: GI50 Conc. per Cell Lines
[6] = system: Breast cancer subpanel; test: NCI five-dose assay, subpanel mean; settings: for GI50 Selectivity Ratio (MID a/MID b): Breast cancer subpanel; for GI50: Homo sapiens, read-out: GI50 Subpanel MID b
[7] = system: HCC-2998; test: NCI five-dose assay; settings: for CC50 / GI50: Homo sapiens; for CC50: read-out: LC50 (the source's name); for GI50: read-out: GI50 Conc. per Cell Lines
[8] = system: NCI-H460; test: NCI five-dose assay; settings: for CC50 / GI50: Homo sapiens; for CC50: read-out: LC50 (the source's name); for GI50: read-out: GI50 Conc. per Cell Lines
[9] = system: Non-small cell lung cancer subpanel; test: NCI five-dose assay, subpanel mean; settings: for GI50: Homo sapiens, read-out: GI50 Subpanel MID b; for GI50 Selectivity Ratio (MID a/MID b): Non-small cell lung cancer subpanel
[10] = system: HCT-116; test: NCI five-dose assay; settings: for CC50 / GI50: Homo sapiens; for CC50: read-out: LC50 (the source's name); for GI50: read-out: GI50 Conc. per Cell Lines
[11] = system: SF-268; test: NCI five-dose assay; settings: for CC50 / GI50: Homo sapiens; for CC50: read-out: LC50 (the source's name); for GI50: read-out: GI50 Conc. per Cell Lines
[12] = system: Leukemia subpanel; test: NCI five-dose assay, subpanel mean; settings: for GI50: Homo sapiens, read-out: GI50 Subpanel MID b; for GI50 Selectivity Ratio (MID a/MID b): Leukemia subpanel
[13] = average sensitivity of all cell lines of the Melanoma subpanel
[14] = average sensitivity of all cell lines of the Breast cancer subpanel
[15] = NCI-H460, Non-small cell lung cancer, 48 h
[16] = NCI-H460, Non-small cell lung cancer
[17] = average sensitivity of all cell lines of the Non-small cell lung cancer subpanel
[18] = average sensitivity of all cell lines of the Leukemia subpanel

Cc1ccc(C(=O)CSc2nnc(-c3c[nH]c4ccccc34)n2-c2ccccc2)cc1 [Compound 6h, 2-((5-(1H-Indol-3-yl)-4-phenyl-4H-1,2,4-triazol-3-yl)thio)-1-(p-tolyl)ethenone]
TGI Conc. per Cell Lines ([1]; HCT-15, Colon cancer): >100 µM
CC50 ([1]; HCT-15, Colon cancer, 48 h): > 100 µM
GI50 ([1]; HCT-15, Colon cancer): 22.6 µM
GI50 [2, 13]: 21.8 µM
GI50 Selectivity Ratio (MID a/MID b) [2]: 0.88
CC50 ([3]; SNB-75, CNS cancer, 48 h): 68 µM
GI50 ([3]; SNB-75, CNS cancer): 12.9 µM
TGI Conc. per Cell Lines ([3]; SNB-75, CNS cancer): 29.60 µM
CC50 ([4]; M14, Melanoma, 48 h): > 100 µM
GI50 ([4]; M14, Melanoma): 32.1 µM
TGI Conc. per Cell Lines ([4]; M14, Melanoma): >100 µM
CC50 ([5]; SK-OV-3, Ovarian cancer, 48 h): 64.4 µM
GI50 ([5]; SK-OV-3, Ovarian cancer): 17 µM
TGI Conc. per Cell Lines ([5]; SK-OV-3, Ovarian cancer): 33.10 µM
GI50 Selectivity Ratio (MID a/MID b) [6]: 1.07
GI50 [6, 14]: 18 µM
TGI Conc. per Cell Lines ([7]; HCC-2998, Colon cancer): 51.70 µM
CC50 ([7]; HCC-2998, Colon cancer, 48 h): > 100 µM
GI50 ([7]; HCC-2998, Colon cancer): 20 µM
CC50 [8, 15]: 63.5 µM
GI50 [8, 16]: 15.2 µM
TGI Conc. per Cell Lines [8, 16]: 31.00 µM
GI50 [9, 17]: 14.9 µM
GI50 Selectivity Ratio (MID a/MID b) [9]: 1.29
TGI Conc. per Cell Lines ([10]; HCT-116, Colon cancer): 60.40 µM
CC50 ([10]; HCT-116, Colon cancer, 48 h): > 100 µM
GI50 ([10]; HCT-116, Colon cancer): 18.7 µM
CC50 ([11]; SF-268, CNS cancer, 48 h): > 100 µM
GI50 ([11]; SF-268, CNS cancer): 24.2 µM
TGI Conc. per Cell Lines ([11]; SF-268, CNS cancer): 78.90 µM
GI50 [12, 18]: 33.5 µM
GI50 Selectivity Ratio (MID a/MID b) [12]: 0.58

Cc1ccc(/C(CSc2nnc(-c3c[nH]c4ccccc34)n2-c2ccccc2)=N/O)cc1 [Compound 7h, (Z)-2-((5-(1H-Indol-3-yl)-4-phenyl-4H-1,2,4-triazol-3-yl)thio)-1-(p-tolyl)ethanone Oxime]
TGI Conc. per Cell Lines ([1]; HCT-15, Colon cancer): 3.34 µM
CC50 ([1]; HCT-15, Colon cancer, 48 h): 6.37 µM
GI50 ([1]; HCT-15, Colon cancer): 1.75 µM
GI50 [2, 13]: 2.78 µM
GI50 Selectivity Ratio (MID a/MID b) [2]: 1.08
CC50 ([3]; SNB-75, CNS cancer, 48 h): 5.48 µM
GI50 ([3]; SNB-75, CNS cancer): 1.4 µM
TGI Conc. per Cell Lines ([3]; SNB-75, CNS cancer): 2.77 µM
GI50 ([4]; M14, Melanoma): 1.79 µM
TGI Conc. per Cell Lines ([4]; M14, Melanoma): 3.86 µM
CC50 ([5]; SK-OV-3, Ovarian cancer, 48 h): 7.89 µM
GI50 ([5]; SK-OV-3, Ovarian cancer): 1.68 µM
TGI Conc. per Cell Lines ([5]; SK-OV-3, Ovarian cancer): 3.64 µM
GI50 Selectivity Ratio (MID a/MID b) [6]: 1.58
GI50 [6, 14]: 1.9 µM
TGI Conc. per Cell Lines ([7]; HCC-2998, Colon cancer): 3.93 µM
CC50 ([7]; HCC-2998, Colon cancer, 48 h): 7.39 µM
GI50 ([7]; HCC-2998, Colon cancer): 2.09 µM
CC50 [8, 15]: 6.55 µM
GI50 [8, 16]: 3.18 µM
TGI Conc. per Cell Lines [8, 16]: 12.20 µM
GI50 [9, 17]: 4.44 µM
GI50 Selectivity Ratio (MID a/MID b) [9]: 0.68
TGI Conc. per Cell Lines ([10]; HCT-116, Colon cancer): 3.65 µM
GI50 ([10]; HCT-116, Colon cancer): 1.87 µM
CC50 ([11]; SF-268, CNS cancer, 48 h): > 100 µM
GI50 ([11]; SF-268, CNS cancer): 1.99 µM
TGI Conc. per Cell Lines ([11]; SF-268, CNS cancer): 4.66 µM
GI50 [12, 18]: 2.03 µM
GI50 Selectivity Ratio (MID a/MID b) [12]: 1.47

O/N=C(\CSc1nnc(-c2c[nH]c3ccccc23)n1-c1ccccc1)c1ccc(Cl)cc1 [Compound 7j, (Z)-2-((5-(1H-Indol-3-yl)-4-phenyl-4H-1,2,4-triazol-3-yl)thio)-1-(4-chlorophenyl) Ethanone Oxime]
TGI Conc. per Cell Lines ([1]; HCT-15, five dose levels): 13.6 µM
GI50 ([1]; HCT-15, five dose levels): 3.2 µM
CC50 ([1]; HCT-15, five dose levels): > 100 µM
GI50 ([2]; Melanoma, average sensitivity of all cell lines of the subpanel): 3.42 µM
GI50 Selectivity Ratio (MID a/MID b) [2]: 1.06
GI50 ([3]; SNB-75, five dose levels): 1.68 µM
CC50 ([3]; SNB-75, five dose levels): > 100 µM
TGI Conc. per Cell Lines ([3]; SNB-75, five dose levels): 5.80 µM
GI50 ([4]; M14, five dose levels): 3.15 µM
CC50 ([4]; M14, five dose levels): > 100 µM
TGI Conc. per Cell Lines ([4]; M14, five dose levels): 14.1 µM
GI50 ([5]; SK-OV-3, five dose levels): 3.38 µM
CC50 ([5]; SK-OV-3, five dose levels): 71.4 µM
GI50 Selectivity Ratio (MID a/MID b) [6]: 1.24
GI50 ([6]; Breast cancer, average sensitivity of all cell lines of the subpanel): 2.93 µM
GI50 ([7]; HCC-2998, five dose levels): 4.74 µM
CC50 ([7]; HCC-2998, five dose levels): > 100 µM
GI50 ([8]; NCI-H460, five dose levels): 3.33 µM
CC50 ([8]; NCI-H460, five dose levels): > 100 µM
TGI Conc. per Cell Lines ([8]; NCI-H460, five dose levels): 15.7 µM
GI50 ([9]; Non-small cell lung cancer, average sensitivity of all cell lines of the subpanel): 3.86 µM
GI50 Selectivity Ratio (MID a/MID b) [9]: 0.945
TGI Conc. per Cell Lines ([10]; HCT-116, five dose levels): 13.7 µM
GI50 ([10]; HCT-116, five dose levels): 2.92 µM
CC50 ([10]; HCT-116, five dose levels): > 100 µM
GI50 ([11]; SF-268, five dose levels): 2.11 µM
CC50 ([11]; SF-268, five dose levels): > 100 µM
TGI Conc. per Cell Lines ([11]; SF-268, five dose levels): 5.08 µM
GI50 ([12]; Leukemia, average sensitivity of all cell lines of the subpanel): 2.8 µM
GI50 Selectivity Ratio (MID a/MID b) [12]: 1.30
